Experimental data as given in the NIST ThermoML archive (doi:10.1021/je900550v).

Settings: 101.33 kPa, Liquid; for speed of sound: Sing-around technique in a fixed-path interferometer; for mass density: Vibrating tube method

CC(=O)[O-].C[NH2+]CCO [N-methyl-2-hydroxyethylammonium acetate]
Settings	mass density [kg/m3]	speed of sound [m/s]	viscosity [mPa·s]
278.15 K	1112.83	1848.3	–
278.4 K	1112.68	1847.6	–
278.65 K	1112.54	1846.8	–
278.9 K	1112.38	1846.1	–
279.15 K	1112.23	1845.4	–
279.4 K	1112.08	1844.7	–
279.65 K	1111.93	1843.9	–
279.9 K	1111.78	1843.2	–
280.15 K	1111.63	1842.5	–
280.4 K	1111.48	1841.8	–
280.65 K	1111.33	1841	–
280.9 K	1111.18	1840.3	–
281.15 K	1111.03	1839.6	–
281.4 K	1110.88	1838.9	–
281.65 K	1110.74	1838.2	–
281.9 K	1110.58	1837.5	–
282.15 K	1110.43	1836.8	–
282.4 K	1110.28	1836.1	–
282.65 K	1110.13	1835.4	–
282.9 K	1109.98	1834.7	–
283.15 K	1109.83	1834	–
283.4 K	1109.68	1833.3	–
283.65 K	1109.53	1832.6	–
283.9 K	1109.38	1832	–
284.15 K	1109.22	1831.3	–
284.4 K	1109.07	1830.6	–
284.65 K	1108.92	1829.9	–
284.9 K	1108.77	1829.2	–
285.15 K	1108.62	1828.6	–
285.4 K	1108.47	1827.9	–
285.65 K	1108.32	1827.2	–
285.9 K	1108.17	1826.5	–
286.15 K	1108.02	1825.9	–
286.4 K	1107.86	1825.2	–
286.65 K	1107.71	1824.5	–
286.9 K	1107.56	1823.8	–
287.15 K	1107.41	1823.2	–
287.4 K	1107.26	1822.5	–
287.65 K	1107.11	1821.8	–
287.9 K	1106.95	1821.2	–
288.15 K	1106.8	1820.5	211.24
288.4 K	1106.65	1819.9	–
288.65 K	1106.5	1819.2	–
288.9 K	1106.35	1818.6	–
289.15 K	1106.19	1817.9	–
289.4 K	1106.04	1817.3	–
289.65 K	1105.89	1816.6	–
289.9 K	1105.73	1816	–
290.15 K	1105.58	1815.3	–
290.4 K	1105.43	1814.7	–
290.65 K	1105.28	1814	–
290.9 K	1105.13	1813.4	–
291.15 K	1104.97	1812.7	–
291.4 K	1104.82	1812.1	–
291.65 K	1104.67	1811.4	–
291.9 K	1104.51	1810.8	–
292.15 K	1104.36	1810.1	–
292.4 K	1104.21	1809.5	–
292.65 K	1104.05	1808.8	–
292.9 K	1103.9	1808.2	–
293.15 K	1103.76	1807.5	145.8
293.4 K	1103.61	1806.9	–
293.65 K	1103.46	1806.3	–
293.9 K	1103.32	1805.6	–
294.15 K	1103.17	1805	–
294.4 K	1103.02	1804.3	–
294.65 K	1102.88	1803.7	–
294.9 K	1102.73	1803.1	–
295.15 K	1102.59	1802.4	–
295.4 K	1102.44	1801.8	–
295.65 K	1102.29	1801.2	–
295.9 K	1102.14	1800.5	–
296.15 K	1102	1799.9	–
296.4 K	1101.85	1799.2	–
296.65 K	1101.7	1798.6	–
296.9 K	1101.56	1798	–
297.15 K	1101.41	1797.3	–
297.4 K	1101.26	1796.7	–
297.65 K	1101.11	1796	–
297.9 K	1100.97	1795.4	–
298.15 K	1100.83	1794.8	106.06
298.4 K	1100.67	1794.1	–
298.65 K	1100.53	1793.5	–
298.9 K	1100.38	1792.9	–
299.15 K	1100.23	1792.2	–
299.4 K	1100.08	1791.6	–
299.65 K	1099.93	1791	–
299.9 K	1099.78	1790.3	–
300.15 K	1099.63	1789.7	–
300.4 K	1099.48	1789	–
300.65 K	1099.34	1788.4	–
300.9 K	1099.19	1787.8	–
301.15 K	1099.04	1787.1	–
301.4 K	1098.89	1786.5	–
301.65 K	1098.74	1785.8	–
301.9 K	1098.59	1785.2	–
302.15 K	1098.44	1784.6	–
302.4 K	1098.29	1783.9	–
302.65 K	1098.14	1783.3	–
302.9 K	1097.99	1782.6	–
303.15 K	1097.84	1782	78.7
303.4 K	1097.69	1781.3	–
303.65 K	1097.54	1780.7	–
303.9 K	1097.4	1780.2	–
304.15 K	1097.25	1779.6	–
304.4 K	1097.1	1779	–
304.65 K	1096.95	1778.3	–
304.91 K	1096.79	1777.7	–
305.15 K	1096.64	1777	–
305.4 K	1096.49	1776.4	–
305.65 K	1096.34	1775.7	–
305.9 K	1096.19	1775.1	–
306.15 K	1096.04	1774.5	–
306.4 K	1095.89	1773.8	–
306.65 K	1095.74	1773.2	–
306.9 K	1095.59	1772.5	–
307.15 K	1095.44	1771.9	–
307.4 K	1095.29	1771.3	–
307.65 K	1095.14	1770.6	–
307.9 K	1094.98	1770	–
308.15 K	1094.83	1769.3	60.03
308.4 K	1094.68	1768.7	–
308.65 K	1094.52	1768	–
308.9 K	1094.37	1767.4	–
309.15 K	1094.22	1766.8	–
309.4 K	1094.07	1766.1	–
309.65 K	1093.92	1765.5	–
309.9 K	1093.77	1764.8	–
310.15 K	1093.62	1764.2	–
310.4 K	1093.47	1763.6	–
310.65 K	1093.31	1762.9	–
310.91 K	1093.16	1762.3	–
311.16 K	1093.01	1761.7	–
311.4 K	1092.85	1761	–
311.65 K	1092.7	1760.4	–
311.91 K	1092.55	1759.7	–
312.16 K	1092.4	1759.1	–
312.41 K	1092.24	1758.5	–
312.66 K	1092.09	1757.8	–
312.91 K	1091.94	1757.2	–
313.15 K	–	–	46.16
313.16 K	1091.78	1756.5	–
313.4 K	1091.63	1755.9	–
313.66 K	1091.48	1755.2	–
313.9 K	1091.32	1754.6	–
314.15 K	1091.17	1753.9	–
314.4 K	1091.02	1753.3	–
314.65 K	1090.87	1752.6	–
314.9 K	1090.71	1752	–
315.15 K	1090.56	1751.3	–
315.41 K	1090.41	1750.7	–
315.65 K	1090.26	1750	–
315.91 K	1090.1	1749.4	–
316.16 K	1089.95	1748.7	–
316.41 K	1089.79	1748.1	–
316.66 K	1089.64	1747.4	–
316.91 K	1089.49	1746.8	–
317.16 K	1089.33	1746.1	–
317.4 K	1089.18	1745.5	–
317.66 K	1089.02	1744.8	–
317.91 K	1088.87	1744.2	–
318.15 K	–	–	37.28
318.16 K	1088.72	1743.5	–
318.41 K	1088.56	1742.8	–
318.65 K	1088.41	1742.2	–
318.9 K	1088.26	1741.5	–
319.16 K	1088.1	1740.9	–
319.41 K	1087.94	1740.2	–
319.65 K	1087.79	1739.6	–
319.91 K	1087.64	1738.9	–
320.16 K	1087.48	1738.2	–
320.41 K	1087.33	1737.6	–
320.65 K	1087.17	1736.9	–
320.91 K	1087.02	1736.3	–
321.15 K	1086.86	1735.6	–
321.41 K	1086.71	1735	–
321.66 K	1086.55	1734.3	–
321.9 K	1086.4	1733.6	–
322.15 K	1086.24	1733	–
322.41 K	1086.08	1732.3	–
322.65 K	1085.93	1731.7	–
322.91 K	1085.77	1731	–
323.15 K	–	–	29.06
323.16 K	1085.62	1730.3	–
323.41 K	1085.46	1729.7	–
323.65 K	1085.31	1729	–
323.91 K	1085.15	1728.3	–
324.16 K	1085	1727.7	–
324.41 K	1084.84	1727	–
324.65 K	1084.68	1726.4	–
324.9 K	1084.53	1725.7	–
325.16 K	1084.37	1725	–
325.4 K	1084.22	1724.4	–
325.66 K	1084.06	1723.7	–
325.9 K	1083.9	1723.1	–
326.16 K	1083.75	1722.4	–
326.41 K	1083.59	1721.7	–
326.66 K	1083.43	1721.1	–
326.9 K	1083.28	1720.4	–
327.16 K	1083.12	1719.7	–
327.4 K	1082.97	1719.1	–
327.66 K	1082.81	1718.4	–
327.9 K	1082.65	1717.7	–
328.15 K	1082.49	1717.1	–
328.41 K	1082.34	1716.4	–
328.66 K	1082.18	1715.8	–
328.9 K	1082.03	1715.1	–
329.16 K	1081.87	1714.4	–
329.4 K	1081.71	1713.8	–
329.65 K	1081.55	1713.1	–
329.9 K	1081.4	1712.5	–
330.16 K	1081.24	1711.8	–
330.41 K	1081.08	1711.1	–
330.66 K	1080.92	1710.5	–
330.91 K	1080.77	1709.8	–
331.16 K	1080.61	1709.1	–
331.41 K	1080.45	1708.5	–
331.66 K	1080.29	1707.8	–
331.91 K	1080.13	1707.1	–
332.16 K	1079.97	1706.5	–
332.41 K	1079.82	1705.8	–
332.66 K	1079.66	1705.1	–
332.91 K	1079.5	1704.5	–
333.16 K	1079.34	1703.8	–
333.41 K	1079.19	1703.1	–
333.66 K	1079.03	1702.5	–
333.91 K	1078.87	1701.8	–
334.16 K	1078.71	1701.2	–
334.41 K	1078.55	1700.5	–
334.66 K	1078.39	1699.8	–
334.91 K	1078.23	1699.2	–
335.16 K	1078.08	1698.5	–
335.41 K	1077.92	1697.9	–
335.66 K	1077.76	1697.2	–
335.91 K	1077.6	1696.6	–
336.16 K	1077.44	1696	–
336.41 K	1077.28	1695.3	–
336.66 K	1077.12	1694.7	–
336.9 K	1076.96	1694	–
337.16 K	1076.8	1693.4	–
337.4 K	1076.63	1692.8	–
337.66 K	1076.47	1692.2	–
337.9 K	1076.32	1691.7	–
338.15 K	1076.16	1691.3	–
